Assay results published in patent US12691092B2, “Method for reducing cutaneous skin scarring by pre-emptive priming and compounds and compositions for its implementation” (SOS SCIENCE OF SKIN LTD, priority 2020, dated 2026).

Tests used:
Format in all cases: in vivo, human
[1] = tested on: VEGF-A; test: VEGF-A angiogenic immunohistochemical marker in scar biopsies
Method: (§1) A double-blind randomized placebo-controlled trial was conducted using a temporal punch-biopsy model. The punch biopsy and topical application methodology used in the study is illustrated in FIG. 1, namely showing pre-injury pre-emptive priming (7-days), pre-injury pre-emptive priming (3-days), day of injury (immediate application on day 0), post-injury (delayed 2 weeks post injury) including biopsy time points and time of topical applications. Each group applied both placebo and topical formulations twice daily for the duration of the study until week 8, with only the starting time point differing between groups Participants were split into 4 groups (n=10 in each group) in order to compare different modes (timings) of commencement of the topical application: • Group-1: Pre-emptive Priming (7-days): pre-injury • Group-2: Pre-emptive Priming (3-days): pre-injury • Group-3: Immediate (0-day): day-of-injury • Group-4: Delayed (14-days): post-injury Clinical quantitative devices were used to objectively monitor cutaneous healing at weekly intervals and punch biopsies were performed on day 0 (uninjured skin) and at weeks 4 and 8 for protein and gene expression analyses. In the trial, topical EGCG and a placebo topical were applied twice daily for the duration of the trial until week 8 with only the starting time points differing between groups. Clinical and experimental analysis involved use of non-invasive devices as well as protein and gene studies. Excisional skin biopsies in upper arms were evaluated weekly with multiple quantitative devices over an 8-week period. […] In order to further support these findings and the clinical findings, two well-known and established angiogenic immunohistochemical markers; CD31 and VEGF-A were used.

[2] = tested on: Nuclear factor erythroid 2-related factor 2 (NRF2); test: NRF2 immunohistochemical marker (anti-oxidant effect); details: scar samples, weeks 4 and 8
Method: (§2) A double-blind randomized placebo-controlled trial was conducted using a temporal punch-biopsy model. The punch biopsy and topical application methodology used in the study is illustrated in FIG. 1, namely showing pre-injury pre-emptive priming (7-days), pre-injury pre-emptive priming (3-days), day of injury (immediate application on day 0), post-injury (delayed 2 weeks post injury) including biopsy time points and time of topical applications. Each group applied both placebo and topical formulations twice daily for the duration of the study until week 8, with only the starting time point differing between groups Participants were split into 4 groups (n=10 in each group) in order to compare different modes (timings) of commencement of the topical application: • Group-1: Pre-emptive Priming (7-days): pre-injury • Group-2: Pre-emptive Priming (3-days): pre-injury • Group-3: Immediate (0-day): day-of-injury • Group-4: Delayed (14-days): post-injury Clinical quantitative devices were used to objectively monitor cutaneous healing at weekly intervals and punch biopsies were performed on day 0 (uninjured skin) and at weeks 4 and 8 for protein and gene expression analyses. […] Excisional skin biopsies in upper arms were evaluated weekly with multiple quantitative devices over an 8-week period. […]

[3] = tested on: elastin; test: Immunohistochemical analysis of elastin in scar biopsies
Method: as §1, with “period. Immunohistochemical analyses, mRNA sequencing and QRT-PCR were performed on tissue biopsies.” for “period.”, “There was also a significant increase at week-4 in group-1 only by 12% with EGCG (P=0.01). Between group analysis indicated a significant difference at week-8 (p=0.001). The greatest differences were in group-1 compared” for “In order”, “groups-3 by 20% (p=0.008)” for “further support these findings”, “group-4 by 20% (p=0.003)” for “the clinical findings, two well-known”, “in group-2 compared to group-4 by 17% (p=0.009).” for “established angiogenic immunohistochemical markers; CD31 and VEGF-A were used.”

[4] = tested on: elastin; test: Gene expression analysis of elastin; details: weeks 4 and 8; significant in groups-1 to 3 at week 8 (p<0.05)
Method: as §2

For `O=C(OC1Cc2c(O)cc(O)cc2OC1c1cc(O)c(O)c(O)c1)c1cc(O)c(O)c(O)c1` (single isomer, unassigned; (-)) [EGCG, (-)-epigallocatechin-3-gallate], the “VEGF-A in EGCG-treated samples compared to placebo” value ([1]; week 4, all groups, p<0.01) was “significantly down-regulated”, the “VEGF-A: greater reduction in group-2 compared to group-4” value ([1]; week 4, 3-day priming vs delayed, p=0.01) was 56% and the “VEGF-A: greater reduction in group-1 compared to group-4” value ([1]; week 4, 7-day priming vs delayed, p=0.005) was 51%. The “VEGF-A in EGCG-treated samples” value ([1]; week 8, groups 1-3, p<0.01) was “significant reduction”, the “NRF2 amounts, EGCG samples compared to placebo” value [2] was “slightly higher amounts of NRF2 compared to placebo samples, although not significantly” and the “Elastin levels in primed uninjured skin” value ([3]; primed uninjured skin prior to injury) was “increases elastin levels”. For the same compound, the “Elastin (immunohistochemical) increase with EGCG” value ([3]; week 4, group-1 only, P=0.01) was 12%, the “Elastin (immunohistochemical), EGCG-treated samples compared to placebo” value ([3]; week 8, all groups, p<0.01) was “up-regulated” and the “Elastin: difference of group-2 compared to group-4” value ([3]; week 8, 3-day priming vs delayed, p=0.009) was 17%. For the same compound, the “Elastin: difference of group-1 compared to group-4” value ([3]; week 8, 7-day priming vs delayed, p=0.003) was 20%, the “Elastin: difference of group-1 compared to group-3” value ([3]; week 8, 7-day priming vs immediate, p=0.008) was 20% and the “Elastin gene expression, EGCG-treated samples compared to placebo” value [4] was “upregulation”.
